Experimental data taken from patent publication US20070082905A1, “PHARMACEUTICAL COMPOSITIONS COMPRISING N-TRIAZOLYMETHYL-PIPERAZINE COMPOUNDS AND METHODS OF USING SAME” (priority 2005, published 2007).
Where a name gives a salt, the structure may show the parent alone.

Tests used:
[1] = Pharmacokinetics after a single oral dose in healthy male volunteers (plasma, HPLC-MS/MS); type: in vivo, human
Method: (§1) The pharmacokinetics after a single oral dose of the dihydrochloride salt of Compound D ((2R)-1-[3,5-bis(trifluoromethyl)benzoyl]-2-(1H-indol-3-ylmethyl)-4-{[5-(morpholinomethyl)-2H-1,2,3-triazol-4-yl]methyl}piperazine-dihydrochloride) were assessed in healthy male volunteers. Pharmacodynamic effects were also evaluated by measuring the antagonism of Substance P-induced venodialation using the hand vein compliance technique.
Nineteen healthy male non-smokers participated in a randomized, double-blind, placebo-controlled, cross-over study after each gave written informed consent. Only healthy volunteers without concurrent drug use were included in the study. […] Further exclusion criteria were: a history of allergies, known conditions causing endothelial dysfunction as diabetes, hyperlipidemia, arterial hypertension, hyperhomocysteinemia, and smoking, regular medication or treatment with drugs within the last 2 weeks, acute or chronic illness, and drug or alcohol abuse.
Next, Compound D as described herein (250 mg and 25 mg quinine sulphate) or placebo (25 mg quinine sulphate), both dissolved in water for injection and mint syrup, were administered as an oral solution. Quinine was added for blinding to mimic the bitter taste of Compound D and mint syrup to disguise the slightly yellowish colour as well as bitter taste. The infusion of Substance P (same dose as before study drug administration) was repeated at the following time points: 0.5 h, 1.25 h, 2 h, 2.75 h, 3.5 h, and 4.25 h after dosing. Each peptide application was separated by a wash-out phase of 45 min to avoid the occurrence of tolerance.
Venous blood samples for Compound D were taken 0.25 h before as well as 0.25 h, 0.5 h, 0.75 h, 1 h, 1.25 h, 2.0 h, 2.75 h, 3.5 h, 4.25 h, 6 h, 8 h, 12 h, and 24 h after administration. Blood was drawn into vials containing dry heparin, immediately stored on ice (+4° C.) and plasma was separated within 30 min at 3500 rpm for 10 min. The samples were stored at −20° C. until analysis. When time points of pharmacodynamic (hand vein compliance method) and pharmacokinetic measurements coincided the pharmacodynamic measurements were first finished before blood samples were taken, accepting a delay for pharmacokinetic sampling of about 5 min.
The plasma samples were then analyzed by extracting Compound D and its internal standard from plasma with diethylether, concentration and injection into an HPLC system with MS/MS detection. Accuracy and precision were within specifications; bias was <12%; the inter-day coefficient of variation was <14%. The lower limit of quantification was set at 0.2 ng/ml.
(§2) Source verification of all data documented in case report forms was performed by an independent clinical monitor. Nineteen individuals were randomized and thus included in the safety analysis. Only the randomized participants who completed both dosing sessions according to protocol were included in the pharmacodynamic analysis (n=17). Two participants had to be withdrawn due to methodological problems during hand vein measurements. One of these two was exposed to Compound D and complete pharmacokinetic data were obtained leading to data sets of 18 participants for pharmacokinetic analysis.
The area under the effect-time curve (AUCe) was calculated according to the trapezoidal rule. Statistical analysis of AUCe was performed using a mixed model analysis of variance (ANOVA) including the factors subject, sequence, period, and treatment. Pharmacokinetic calculations were performed using WinNonlin Professional 4.0.1 for Windows (Pharsight Corporation, Mountain View, Calif. 94040, USA). Differences in vital signs and dose-rates were assessed with Wilcoxon signed rank test, unless stated otherwise. Data are expressed as mean±SEM. A p-value of less than 0.05 was considered significant.

NK-1 receptor = target: T1, NK-1 receptor (Homo sapiens, UniProt P25103); assay: Antagonism of Substance P-induced venodilation, dorsal hand vein compliance technique; type: in vivo
T1 construct: measuring the antagonism of Substance P-induced venodialation using the hand vein compliance technique; from tissue; host or cells: dorsal hand vein of healthy male volunteers, in vivo
T1 sequence (P25103 whole entry): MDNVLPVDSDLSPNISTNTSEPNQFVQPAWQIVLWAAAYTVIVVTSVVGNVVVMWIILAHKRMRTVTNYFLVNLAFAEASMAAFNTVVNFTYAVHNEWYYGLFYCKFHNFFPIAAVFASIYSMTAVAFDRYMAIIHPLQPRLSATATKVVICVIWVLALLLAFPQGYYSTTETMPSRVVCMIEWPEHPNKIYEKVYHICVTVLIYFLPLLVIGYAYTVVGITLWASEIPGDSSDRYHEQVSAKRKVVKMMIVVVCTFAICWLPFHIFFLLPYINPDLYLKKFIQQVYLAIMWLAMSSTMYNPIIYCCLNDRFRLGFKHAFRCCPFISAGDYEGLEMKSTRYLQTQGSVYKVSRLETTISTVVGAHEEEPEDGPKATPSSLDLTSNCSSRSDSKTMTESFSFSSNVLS
Method: as §1
The participants abstained from alcohol for at least 24 hours and from methylxanthine-containing beverages for at least 12 hours before the measurements of hand vein compliance were made. […] Venodilator responses were investigated in a quiet room maintained at a constant temperature between 23 and 25° C. using the dorsal hand vein compliance technique according to Aellig (See W. H. Aellig, A new technique for recording compliance of human hand veins. 1981. Br J Clin Pharmacol 2004; 58:S768-74) with modifications as described previously (Fricker R, et al., Endothelial venodilator response in carriers of genetic polymorphisms involved in NO synthesis and degradation. Br J Clin Pharmacol 2004; 58:169-77).
Hand vein compliance measurements started in the morning and the participants were asked to remain in a supine position throughout the study. The hand under investigation was placed on a vacuum pillow sloping upwards at an angle of 30° from horizontal. All vasoactive compounds were administered through a butterfly needle at a constant flow rate (0.25 ml·min^−1) into the vein under investigation. In each participant, the same hand vein was used for both study phases. Changes of the diameter of the vein were recorded using a linear variable differential transformer (Schaevitz®, Type 100 MHR, Pennsauken, N.J., USA) with a freely movable core (weight 0.5 g) resting over the centre of the vein under investigation. Transformer signals were amplified by a Schaevitz® CAS series signal conditioner and the output was recorded on a strip-chart recorder (LKB 2210 recorder, LKB Produkter AB®, Bromma, Sweden) at a paper speed of 0.5 cm·min^−1. The difference between the position of the core before and during inflation of a sphygmomanometer cuff on the same upper arm to 40 mmHg gave a measure of the diameter changes under a given congestion pressure. Peak heights on the strip-chart recorder were linearly proportional to the movement of the core and were measured manually in units according to standard operating procedures.
After having installed the tripod for hand vein compliance technique and having established a stable initial baseline with […] defined as 100% relaxation, increasing dose-rates of the selective α1-adrenoceptor agonist phenylephrine (Neo-Synephrine®, Abbott Laboratories, North Chicago, USA; dosages: 1.25−≦8000 ng·min^−1) were locally infused to constrict the vein by about 80%. This preconstriction baseline was defined as 0%, and the effect of subsequently administered vasodilators was expressed in percentage changes from the difference between the initial baseline diameter during normal saline and the diameter during stable preconstriction.
Once preconstriction was stable, Substance P (Calbiochem/Novabiochem AG, Läufelfingen, Switzerland) was co-administered until the maximal venodilation was reached (approximately 7-10 minutes). To prevent the peptide from sticking to tubing and syringes, substance P was dissolved in a 4% gelatine solution. Based on the experience of previous experiments in this setting, a Substance P dose rate of (1.5 pmol/min) was selected. If a participant reacted with less than 50% venodilation to the dose of 1.5 pmol/min, the dose was doubled to 3 pmol/min.
Next, Compound D as described herein (250 mg and 25 mg quinine sulphate) or placebo (25 mg quinine sulphate), both dissolved in water for injection and mint syrup, were administered as an oral solution. […]

[2] = Safety assessment (ECG, pulse rate, blood pressure, laboratory, adverse events) in healthy male volunteers; type: in vivo, human
Method: Dose-rates administered locally into the hand vein were intended not to result in any systemic effects which were monitored by repeated measurements of heart rate and blood pressure. Blood pressure was taken before and after every infusion of drugs or solvents (sodium chloride, phenylephrine, Substance P); a 12-lead ECG was monitored continuously up to the end of the hand vein compliance measurements.
Safety was assessed by measuring ECG, pulse rate, blood pressure, haematology, blood chemistry, urinalysis, and by occurrence of adverse events.
as §2

[3] = 250 mg oral, among participants

- time to peak plasma concentration ([1]; 250 mg oral solution, single dose, 18 healthy participants, mean±SEM): ≤ 47 ± 3 min
- ratio between maximal and minimal value for AUC (inter-individual variability) [1, 3]: 6.3
- ratio between maximal and minimal value for Cmax (inter-individual variability) [1, 3]: 6.5
- half-life ([1]; male, human, plasma, 250 mg oral solution, single dose, 18 healthy participants, mean±SEM): 9.9 ± 1.6 h
- AUC(0-inf) ([1]; male, human, plasma, 250 mg oral solution, single dose, 18 healthy participants, mean±SEM, read-out: mean AUC0-∞): 183 ± 22 ng·h/mL
- Cmax ([1]; male, human, plasma, 250 mg oral solution, single dose, 18 healthy participants, mean±SEM, read-out: peak plasma concentration (Cmax)): 77 ± 9 ng/mL
- response to SNP (sodium nitroprusside) at the end of the experiment (NK-1 receptor; 2 μg/min SNP into hand vein after last Substance P infusion, not different from placebo (p=0.69)): 92±9%
- maximum antagonizing effect (% antagonism of Substance P-induced venodilation) (NK-1 receptor; 250 mg oral, 17 healthy participants, mean±SEM, 95% CI 78, 111): 95±8%
- Substance P-induced venodilation after administration (versus placebo) (NK-1 receptor; 250 mg oral, 17 healthy participants, p<0.001 vs placebo): markedly decreased
- time of maximum antagonizing effect (mean) (NK-1 receptor; 250 mg oral, 17 participants, mean±SEM, 95% CI 0.96, 1.98): 1.47 ± 0.24 h
- mean AUCe (area under the effect-time curve) (NK-1 receptor; 250 mg oral, 17 participants, mean±SEM, 95% CI 198, 358, p<0.001 vs placebo): 278±67 %·h
- time of maximum antagonizing effect (median) (NK-1 receptor; 250 mg oral, 17 participants, median): 1.25 h
SMILES: O=C(c1cc(C(F)(F)F)cc(C(F)(F)F)c1)N1CCN(Cc2n[nH]nc2CN2CCOCC2)C[C@H]1Cc1c[nH]c2ccccc12 [Compound D, (2R)-1-[3,5-bis(trifluoromethyl)benzoyl]-2-(1H-indol-3-ylmethyl)-4-{[5-(morpholinomethyl)-2H-1,2,3-triazol-4-yl]methyl}piperazine-dihydrochloride]
- plasma detectability 24 h after dosing (terminal phase) ([1]; 250 mg oral, 24 h after dosing, lower limit of quantification 0.2 ng/ml): still detectable in low concentrations in all participants
- persistence of antagonistic effect relative to plasma concentration (NK-1 receptor; 250 mg oral, up to 4.25 h after dosing, counter-clockwise hysteresis): antagonistic effect persisted throughout the study while plasma concentrations declined
- serious adverse events ([2]; 250 mg oral, 19 participants in safety analysis): No serious adverse event occurred
- changes in heart rate, blood pressure, or ECG parameters ([2]; 250 mg oral, single dose): Neither Compound D nor placebo induced significant changes
- tolerability ([2]; 250 mg oral, single dose): well tolerated in all participants
- adverse events possibly related to the study drug (number) ([2]; 250 mg oral, mild headache, severe headache, cloudy urine, all resolved): 3
- heart rate ([2]; 4.5 h after administration (baseline 60±2; p=0.14)): 63±2 beats/min
- diastolic blood pressure ([2]; 4.5 h after administration (baseline 68±3; p=0.12)): 72±2 mmHg
- systolic blood pressure ([2]; 4.5 h after administration (baseline 124±3; p=0.10)): 127±2 mmHg
